In patent publication US9918934B2, “Linker-based lecithin microemulsion delivery vehicles” (priority 2006, dated 2018):

Legend:
[1] = test system: reconstructed human skin EpiDerm™ EPI-200; format: in vitro ADME
Experimental: Lidocaine permeability was measured in vitro through reconstructed human skin EpiDerm™ EPI-200 and dorsal pig ear skin using selected formulations of examples 1 through 3. The model skin was placed in a commercial MATTEK™ Permeation Device (MPD). A test formulation (0.4 mL) was applied in the donor compartment. The receptor compartment was filled with 5 mL of PBS (0.01M phosphate, 0.137M NaCl, pH 7.4). At predetermined time, the receiver solution was withdrawn completely from the receptor compartment and was immediately replaced by fresh buffer solution. Sink conditions were maintained at all times. At 5.5 h, the experiment was terminated. All permeation experiments were conducted in triplicate at room temperature.
Lidocaine in receiver solutions was assayed by a UV spectrophotometer ([…] PLUS™, Amersham Pharmacia Biotech, U.S.A.). Receiver solutions were diluted with methanol and the absorbance at 230 nm were measured. A linear calibration curve for lidocaine was obtained at 230 nm in a range of 0-100 μg/mL with a linearity of 0.999.
The cumulative lidocaine amount permeated across the skin was plotted as a function of time (h), and average steady-state flux (J, μg/h/cm2) was calculated by dividing the slope from the linear part of the curve by the area of the exposed skin surface (0.256 cm2). […]

[2] = test system: dorsal pig ear skin; format: in vitro ADME
Experimental: The model skin was placed in a commercial MATTEK™ Permeation Device (MPD). A test formulation (0.4 mL) was applied in the donor compartment. […] At predetermined time, the receiver solution was withdrawn completely from the receptor compartment and was immediately replaced by fresh buffer solution. Sink conditions were maintained at all times. At 5.5 h, the experiment was terminated. All permeation experiments were conducted in triplicate at room temperature.
Receiver solutions were diluted with methanol and the absorbance at 230 nm were measured.
The cumulative lidocaine amount permeated across the skin was plotted as a function of time (h), and average steady-state flux (J, μg/h/cm2) was calculated by dividing the slope from the linear part of the curve by the area of the exposed skin surface (0.256 cm2).
To measure the concentration of lidocaine in pig ear skin, the tissue was removed from the MATTEK™ permeation device, rinse with PBS solution and blotted with lint-free paper tissue to remove any excess of fluid. The tissue was immersed in 2 mL of methanol for a period of 24 hr. After that time, the concentration of lidocaine was measured using the HPLC method described above. The mass of lidocaine extracted is divided by the volume of the tissue (tissue thickness*cross sectional area) to obtain the equivalent lidocaine concentration in the skin. The skin permeability is calculated by dividing the transdermal flux by the lidocaine skin concentration.
The formulation LO-32 (a Type II lecithin linker microemulsion) was reformulated using lower lecithin concentration. The transdermal flux through pig ear dorsal skin was also evaluated for selected formulations, and following the procedures described above. […] (Where: (a) is lecithin; (b) is sorbitan monooleate; (c) is octanoic acid; (d) is sodium octanoate; (e) is water; (f) is lidocaine; (g) is isopropyl myristate; and (v) is microemulsion volume. Concentrations are expressed on a weight percentage basis (w/w).)

Row | MatTek Flux (lidocaine steady-state transdermal flux) [1] | Pig ear skin Flux (lidocaine steady-state transdermal flux) [2] | Pig ear skin Lidocaine in skin [2] [µg/mL] | Pig skin permeability [2] | Flux (lidocaine transdermal flux through excised pig ear skin) [2] | Substance
1 | 160 +/− 10 μg/hr-cm^2 | 130 +/− 20 μg/hr-cm^2 | 5800 ± 200 | 220 +/− 20 μm/hr | – | Pentanol
2 | 320 +/− 20 μg/hr-cm^2 | 110 +/− 10 μg/hr-cm^2 | 6800 ± 400 | 160 +/− 20 μm/hr | 70 +/− 10 μg/cm^2 | Water
